Earlier results on 2 compounds are cited in patent publication US20190000850A1, “COMBINATION CANCER THERAPY” (The Regents of the University of California, priority 2015, published 2019).

For orientation: IC50 means the concentration at which inhibition is half-maximal.

One data set has as its target T1, Chk1 (Homo sapiens, UniProt O14757).
T1 sequence (O14757 1-476): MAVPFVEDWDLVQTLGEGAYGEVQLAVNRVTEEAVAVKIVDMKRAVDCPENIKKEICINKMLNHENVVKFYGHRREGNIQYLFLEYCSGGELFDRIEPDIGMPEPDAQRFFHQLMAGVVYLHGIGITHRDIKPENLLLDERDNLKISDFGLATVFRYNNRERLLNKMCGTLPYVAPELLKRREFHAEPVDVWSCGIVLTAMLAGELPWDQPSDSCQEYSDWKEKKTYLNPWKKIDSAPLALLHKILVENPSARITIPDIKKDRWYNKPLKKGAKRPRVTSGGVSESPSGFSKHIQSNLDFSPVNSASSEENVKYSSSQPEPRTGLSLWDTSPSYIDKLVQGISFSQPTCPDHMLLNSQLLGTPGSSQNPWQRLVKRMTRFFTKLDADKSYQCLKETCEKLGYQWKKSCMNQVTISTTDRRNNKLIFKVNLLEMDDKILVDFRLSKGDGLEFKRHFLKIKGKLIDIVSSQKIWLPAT
As to conditions: read-out: IC50 against primary target (Chk1); cited from earlier work.

A further data set deals with Chk2 (Homo sapiens, UniProt O96017). To be noted: read-out: IC50 against Chk2; cited from earlier work.
For a further data set, the system named is PKC. As to conditions: cited from earlier work.
Another data set deals with cdc2 (Homo sapiens, UniProt P06493). As to conditions: cited from earlier work.

SMILES strings stand for the structures.

Chain of Chk2 (O96017 whole entry, species assumed): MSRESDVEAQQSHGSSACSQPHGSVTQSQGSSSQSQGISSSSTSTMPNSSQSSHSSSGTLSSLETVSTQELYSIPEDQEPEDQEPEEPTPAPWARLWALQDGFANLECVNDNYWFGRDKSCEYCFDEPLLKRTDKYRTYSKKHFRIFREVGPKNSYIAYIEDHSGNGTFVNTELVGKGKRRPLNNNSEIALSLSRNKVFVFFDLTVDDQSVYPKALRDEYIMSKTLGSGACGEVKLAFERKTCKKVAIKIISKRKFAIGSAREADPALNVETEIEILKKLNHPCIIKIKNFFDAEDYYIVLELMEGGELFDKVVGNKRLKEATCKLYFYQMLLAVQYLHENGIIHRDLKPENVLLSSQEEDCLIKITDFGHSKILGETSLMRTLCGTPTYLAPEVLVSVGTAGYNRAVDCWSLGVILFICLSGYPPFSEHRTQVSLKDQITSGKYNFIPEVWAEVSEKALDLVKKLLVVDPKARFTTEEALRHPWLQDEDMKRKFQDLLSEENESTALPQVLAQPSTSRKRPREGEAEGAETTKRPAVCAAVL
Chain of cdc2 (P06493 whole entry, species assumed): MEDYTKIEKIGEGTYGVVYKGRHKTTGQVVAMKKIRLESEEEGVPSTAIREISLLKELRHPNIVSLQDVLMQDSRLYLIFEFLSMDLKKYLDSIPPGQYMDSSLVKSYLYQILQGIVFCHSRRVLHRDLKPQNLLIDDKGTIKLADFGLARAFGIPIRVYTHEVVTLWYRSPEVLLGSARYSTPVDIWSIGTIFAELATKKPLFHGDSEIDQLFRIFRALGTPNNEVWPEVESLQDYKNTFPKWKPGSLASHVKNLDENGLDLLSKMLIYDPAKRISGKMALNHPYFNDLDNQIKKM
Chain of cdc2 (P14635 whole entry partner, species assumed): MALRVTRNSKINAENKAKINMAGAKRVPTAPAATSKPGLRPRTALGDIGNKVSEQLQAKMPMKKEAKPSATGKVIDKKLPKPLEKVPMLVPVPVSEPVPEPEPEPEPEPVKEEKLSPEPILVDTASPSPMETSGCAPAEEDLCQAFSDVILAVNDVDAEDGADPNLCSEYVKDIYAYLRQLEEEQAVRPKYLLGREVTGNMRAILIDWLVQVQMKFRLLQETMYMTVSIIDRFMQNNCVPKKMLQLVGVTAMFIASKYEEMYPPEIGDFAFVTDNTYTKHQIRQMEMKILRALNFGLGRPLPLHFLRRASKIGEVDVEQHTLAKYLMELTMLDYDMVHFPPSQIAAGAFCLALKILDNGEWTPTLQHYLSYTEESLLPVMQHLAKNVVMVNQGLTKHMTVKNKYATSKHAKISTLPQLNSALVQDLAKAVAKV

Turning to `CN(C)CC(C)(C)COc1ccc2[nH]c(-c3cc(NC(=O)c4cnn(Cc5ccccc5)c4)c[nH]c3=O)cc2c1` [V158411], the IC50 on Chk1 was 3.5 nM; on Chk2 it was 2.5 nM.
Turning to `O=C1NC(=O)c2c1c1c3ccccc3n3c1c1c2c2ccccc2n1C1CCC3O1` [SB-218078], the IC50 in the data set on PKC was 1000 nM; at Chk1, 15 nM; on cdc2, 250 nM.
